Blank lines part the entries; values can stand above or below the compound they belong to.
Legend:
[1] = biological target: Tyrosine-protein kinase receptor UFO (Homo sapiens) (UniProt P30530); assay: Selectivity interaction (Rxn Biology Kinase assay) EUB0001632a AXL; conditions: at 10 µM
[2] = biological target: Tyrosine-protein kinase HCK (Homo sapiens) (UniProt P08631); assay: Selectivity interaction (ActivX KiNativ screen (kinase selectivity in THP-1 cell lysates)) EUB0000639a HCK; format: subcellular; conditions: lysate, at 5 µM
[3] = biological target: Bone morphogenetic protein receptor type-1A (Homo sapiens, UniProt P36894); assay: Selectivity interaction (ProQinase) EUB0000171b BMPR1A
[4] = tested on: Fibroblast growth factor receptor 3 (Homo sapiens), P22607 [G697C]; assay: (§1) Selectivity interaction (KinomeScan (DiscoverX)) EUB0000695a FGFR3; conditions: at 100 nM
[5] = biological target: Fibroblast growth factor receptor 3 (Homo sapiens, UniProt P22607); assay: as §1; conditions: at 100 nM
[6] = biological target: T1, Hormonally up-regulated neu tumor-associated kinase (Homo sapiens) (UniProt P57058); assay: Selectivity interaction (KinomeScan (DiscoverX)) EUB0000595a HUNK; conditions: at 10 µM
T1 sequence (whole entry): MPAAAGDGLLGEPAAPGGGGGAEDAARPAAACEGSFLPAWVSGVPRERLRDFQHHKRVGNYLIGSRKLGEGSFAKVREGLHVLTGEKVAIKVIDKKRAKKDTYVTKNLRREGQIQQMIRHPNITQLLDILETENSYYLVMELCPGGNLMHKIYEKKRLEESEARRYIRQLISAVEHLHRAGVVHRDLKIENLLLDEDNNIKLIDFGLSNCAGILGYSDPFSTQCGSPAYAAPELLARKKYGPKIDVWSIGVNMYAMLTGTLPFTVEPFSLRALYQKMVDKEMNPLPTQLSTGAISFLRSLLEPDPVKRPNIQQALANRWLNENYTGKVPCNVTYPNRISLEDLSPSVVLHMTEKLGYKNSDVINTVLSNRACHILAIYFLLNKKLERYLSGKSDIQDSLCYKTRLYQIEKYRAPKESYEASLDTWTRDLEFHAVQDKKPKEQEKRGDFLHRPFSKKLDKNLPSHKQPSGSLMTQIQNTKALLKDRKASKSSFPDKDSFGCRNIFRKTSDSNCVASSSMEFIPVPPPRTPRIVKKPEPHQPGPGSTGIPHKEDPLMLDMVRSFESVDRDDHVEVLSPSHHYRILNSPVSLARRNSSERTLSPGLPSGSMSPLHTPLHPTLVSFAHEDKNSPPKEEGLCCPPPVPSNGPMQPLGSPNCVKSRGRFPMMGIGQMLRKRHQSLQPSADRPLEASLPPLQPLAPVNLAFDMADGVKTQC

[7] = biological target: T2, Activin receptor type-1B (Homo sapiens) (UniProt P36896); assay: Selectivity interaction (KinomeScan (DiscoverX)) EUB0000595a ACVR1B; conditions: at 10 µM
T2 sequence (whole entry): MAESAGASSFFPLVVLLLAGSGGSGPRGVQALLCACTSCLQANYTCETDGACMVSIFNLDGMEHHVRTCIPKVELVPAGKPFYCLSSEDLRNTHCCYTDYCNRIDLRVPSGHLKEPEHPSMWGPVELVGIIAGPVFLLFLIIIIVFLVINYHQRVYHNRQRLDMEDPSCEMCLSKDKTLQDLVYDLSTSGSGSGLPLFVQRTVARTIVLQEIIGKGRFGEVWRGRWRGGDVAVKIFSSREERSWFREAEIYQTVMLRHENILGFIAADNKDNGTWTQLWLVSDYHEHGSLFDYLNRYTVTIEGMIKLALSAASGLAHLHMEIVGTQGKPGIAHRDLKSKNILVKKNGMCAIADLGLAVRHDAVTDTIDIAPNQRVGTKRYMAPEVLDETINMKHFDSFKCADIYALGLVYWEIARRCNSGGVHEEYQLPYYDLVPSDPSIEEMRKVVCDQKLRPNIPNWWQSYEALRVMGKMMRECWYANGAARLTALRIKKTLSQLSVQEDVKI

[8] = biological target: Cyclin-dependent kinase 19 (Homo sapiens) (UniProt Q9BWU1); assay: Selectivity interaction (KinomeScan (DiscoverX)) EUB0001049a CDK19; conditions: at 1 µM
[9] = biological target: T3, Serine/threonine-protein kinase Nek2 (Homo sapiens) (UniProt P51955); assay: Selectivity interaction (KinomeScan (DiscoverX)) EUB0001049a NEK2; conditions: at 1 µM
T3 sequence (whole entry): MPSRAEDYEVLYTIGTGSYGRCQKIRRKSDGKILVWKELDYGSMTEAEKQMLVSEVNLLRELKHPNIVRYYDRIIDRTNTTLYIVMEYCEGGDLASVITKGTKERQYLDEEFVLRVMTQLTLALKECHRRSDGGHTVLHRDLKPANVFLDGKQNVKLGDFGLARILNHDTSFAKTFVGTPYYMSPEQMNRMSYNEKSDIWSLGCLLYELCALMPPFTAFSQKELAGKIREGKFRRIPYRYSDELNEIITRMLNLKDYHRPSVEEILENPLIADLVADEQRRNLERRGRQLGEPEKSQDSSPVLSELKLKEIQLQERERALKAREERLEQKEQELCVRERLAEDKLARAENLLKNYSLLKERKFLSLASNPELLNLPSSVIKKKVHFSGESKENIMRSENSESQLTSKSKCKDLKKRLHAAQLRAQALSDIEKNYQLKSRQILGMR

[10] = biological target: Tyrosine-protein kinase SYK (Homo sapiens, UniProt P43405); assay: Selectivity interaction (KinomeScan (DiscoverX)) EUB0001079a SYK; conditions: at 1 µM

Bone morphogenetic protein receptor type-1A, sequence (P36894 whole entry): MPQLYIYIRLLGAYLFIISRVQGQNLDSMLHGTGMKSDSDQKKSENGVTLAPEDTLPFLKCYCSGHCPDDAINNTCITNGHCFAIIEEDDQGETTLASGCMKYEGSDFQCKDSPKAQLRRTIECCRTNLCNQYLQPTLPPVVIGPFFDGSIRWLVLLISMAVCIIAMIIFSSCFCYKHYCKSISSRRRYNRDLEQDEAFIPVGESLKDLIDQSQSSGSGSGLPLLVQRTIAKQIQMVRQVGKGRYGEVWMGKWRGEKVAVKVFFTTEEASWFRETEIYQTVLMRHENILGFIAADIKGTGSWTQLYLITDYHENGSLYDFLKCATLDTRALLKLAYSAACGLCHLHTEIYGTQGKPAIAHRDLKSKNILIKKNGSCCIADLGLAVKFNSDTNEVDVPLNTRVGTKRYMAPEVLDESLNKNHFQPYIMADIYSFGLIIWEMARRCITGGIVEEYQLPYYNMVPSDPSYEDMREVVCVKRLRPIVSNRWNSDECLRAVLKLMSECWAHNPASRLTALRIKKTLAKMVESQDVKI
Cyclin-dependent kinase 19 (Homo sapiens), sequence (Q9BWU1 whole entry): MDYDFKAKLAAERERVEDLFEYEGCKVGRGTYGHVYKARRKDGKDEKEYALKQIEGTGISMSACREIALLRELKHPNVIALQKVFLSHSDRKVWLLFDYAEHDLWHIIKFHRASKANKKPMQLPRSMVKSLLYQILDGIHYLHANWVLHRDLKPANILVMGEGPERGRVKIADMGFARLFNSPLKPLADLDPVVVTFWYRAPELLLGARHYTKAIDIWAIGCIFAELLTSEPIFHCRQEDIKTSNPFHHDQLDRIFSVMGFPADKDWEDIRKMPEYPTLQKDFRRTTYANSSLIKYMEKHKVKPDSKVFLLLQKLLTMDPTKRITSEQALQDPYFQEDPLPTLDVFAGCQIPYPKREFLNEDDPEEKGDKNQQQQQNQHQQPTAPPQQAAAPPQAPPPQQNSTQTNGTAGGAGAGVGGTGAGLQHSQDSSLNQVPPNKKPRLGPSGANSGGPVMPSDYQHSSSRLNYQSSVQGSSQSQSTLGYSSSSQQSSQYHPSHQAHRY
Tyrosine-protein kinase HCK (Homo sapiens), sequence (P08631 2-526 limits assumed): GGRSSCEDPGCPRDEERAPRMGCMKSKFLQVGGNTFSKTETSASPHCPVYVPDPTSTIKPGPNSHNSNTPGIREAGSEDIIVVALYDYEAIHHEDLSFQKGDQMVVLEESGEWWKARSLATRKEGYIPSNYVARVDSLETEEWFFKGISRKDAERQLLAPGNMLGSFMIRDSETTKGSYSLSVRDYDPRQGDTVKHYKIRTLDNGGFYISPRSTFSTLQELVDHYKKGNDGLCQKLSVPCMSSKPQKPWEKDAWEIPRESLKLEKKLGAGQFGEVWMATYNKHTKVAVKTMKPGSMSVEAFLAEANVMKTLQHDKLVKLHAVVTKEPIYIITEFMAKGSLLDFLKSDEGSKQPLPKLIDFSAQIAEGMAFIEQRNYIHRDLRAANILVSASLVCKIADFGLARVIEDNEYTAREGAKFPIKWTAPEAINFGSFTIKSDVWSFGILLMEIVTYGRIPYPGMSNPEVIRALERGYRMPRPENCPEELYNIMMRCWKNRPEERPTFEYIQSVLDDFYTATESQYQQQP
Fibroblast growth factor receptor 3 (Homo sapiens), P22607 [G697C], sequence (P22607 whole entry G697C): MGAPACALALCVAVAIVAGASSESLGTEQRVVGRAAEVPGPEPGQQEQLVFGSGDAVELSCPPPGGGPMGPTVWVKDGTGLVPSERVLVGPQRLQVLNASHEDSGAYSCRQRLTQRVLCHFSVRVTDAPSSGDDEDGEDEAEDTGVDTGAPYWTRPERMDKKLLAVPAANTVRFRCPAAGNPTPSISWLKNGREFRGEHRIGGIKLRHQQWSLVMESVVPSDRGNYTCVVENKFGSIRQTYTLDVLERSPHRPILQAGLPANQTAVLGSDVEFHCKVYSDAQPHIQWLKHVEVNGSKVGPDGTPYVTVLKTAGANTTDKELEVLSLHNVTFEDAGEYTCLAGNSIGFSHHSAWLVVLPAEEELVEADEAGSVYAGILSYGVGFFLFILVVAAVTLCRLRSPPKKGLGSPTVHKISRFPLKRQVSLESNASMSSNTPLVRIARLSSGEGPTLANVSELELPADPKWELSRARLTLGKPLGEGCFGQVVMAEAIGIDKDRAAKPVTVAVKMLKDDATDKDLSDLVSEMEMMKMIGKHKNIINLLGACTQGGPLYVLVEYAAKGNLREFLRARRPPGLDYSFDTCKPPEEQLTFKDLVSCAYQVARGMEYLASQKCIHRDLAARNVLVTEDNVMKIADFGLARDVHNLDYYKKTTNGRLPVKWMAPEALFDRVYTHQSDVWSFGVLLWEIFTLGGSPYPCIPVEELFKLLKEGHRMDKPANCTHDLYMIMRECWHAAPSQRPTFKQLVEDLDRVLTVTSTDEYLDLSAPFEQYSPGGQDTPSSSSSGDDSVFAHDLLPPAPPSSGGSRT
Tyrosine-protein kinase receptor UFO (Homo sapiens), sequence (P30530 whole entry): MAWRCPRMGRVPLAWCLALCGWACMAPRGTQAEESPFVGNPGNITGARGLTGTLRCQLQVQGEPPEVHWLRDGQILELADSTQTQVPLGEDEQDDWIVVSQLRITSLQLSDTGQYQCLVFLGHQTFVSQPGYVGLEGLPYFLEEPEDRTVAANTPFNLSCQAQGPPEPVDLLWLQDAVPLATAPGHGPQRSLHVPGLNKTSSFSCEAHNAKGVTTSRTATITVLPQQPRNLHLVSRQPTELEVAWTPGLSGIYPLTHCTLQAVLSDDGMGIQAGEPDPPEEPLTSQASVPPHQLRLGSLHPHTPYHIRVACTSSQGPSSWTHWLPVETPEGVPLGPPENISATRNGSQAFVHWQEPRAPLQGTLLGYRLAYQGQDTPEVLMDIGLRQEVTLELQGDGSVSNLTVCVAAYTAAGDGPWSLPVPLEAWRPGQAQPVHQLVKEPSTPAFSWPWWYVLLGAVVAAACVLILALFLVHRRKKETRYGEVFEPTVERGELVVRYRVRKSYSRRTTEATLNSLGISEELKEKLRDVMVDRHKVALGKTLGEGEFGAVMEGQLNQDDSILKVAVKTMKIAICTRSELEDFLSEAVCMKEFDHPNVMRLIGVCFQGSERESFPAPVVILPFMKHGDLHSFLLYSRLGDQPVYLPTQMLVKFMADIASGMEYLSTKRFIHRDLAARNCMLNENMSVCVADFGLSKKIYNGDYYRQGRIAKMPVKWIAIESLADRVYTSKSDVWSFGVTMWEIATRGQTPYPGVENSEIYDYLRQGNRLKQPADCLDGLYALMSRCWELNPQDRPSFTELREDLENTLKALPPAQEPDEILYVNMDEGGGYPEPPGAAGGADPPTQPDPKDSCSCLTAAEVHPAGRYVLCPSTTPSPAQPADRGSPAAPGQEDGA
Fibroblast growth factor receptor 3, sequence (P22607 23-806 limits assumed): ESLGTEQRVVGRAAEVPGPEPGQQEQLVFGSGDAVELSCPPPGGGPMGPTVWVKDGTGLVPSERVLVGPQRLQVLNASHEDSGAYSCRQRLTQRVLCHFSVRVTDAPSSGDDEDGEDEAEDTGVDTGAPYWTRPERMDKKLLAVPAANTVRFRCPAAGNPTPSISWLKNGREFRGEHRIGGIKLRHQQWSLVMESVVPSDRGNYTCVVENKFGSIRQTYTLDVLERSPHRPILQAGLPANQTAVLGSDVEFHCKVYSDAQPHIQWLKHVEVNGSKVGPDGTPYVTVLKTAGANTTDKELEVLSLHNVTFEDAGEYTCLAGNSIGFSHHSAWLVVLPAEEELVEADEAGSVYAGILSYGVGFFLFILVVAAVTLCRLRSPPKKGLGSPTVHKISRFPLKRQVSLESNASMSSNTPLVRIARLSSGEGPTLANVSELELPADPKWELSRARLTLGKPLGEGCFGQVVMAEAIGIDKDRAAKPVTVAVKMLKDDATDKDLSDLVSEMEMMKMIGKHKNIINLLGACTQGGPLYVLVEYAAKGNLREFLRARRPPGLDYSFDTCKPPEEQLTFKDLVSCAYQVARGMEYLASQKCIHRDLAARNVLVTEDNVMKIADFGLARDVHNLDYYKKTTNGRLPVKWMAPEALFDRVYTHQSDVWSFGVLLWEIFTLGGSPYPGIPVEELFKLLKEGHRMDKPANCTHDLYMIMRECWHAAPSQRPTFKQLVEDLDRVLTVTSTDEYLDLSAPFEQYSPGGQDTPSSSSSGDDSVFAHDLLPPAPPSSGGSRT

- % of inhibition [1]: 4.15%
SMILES: Cn1cc(-n2cnc3c(NCc4nc5cc(Cl)c(Cl)cc5[nH]4)nc(N4CCOCC4)nc32)cn1

- % of inhibition [2]: -20.3%
SMILES: CC[C@@H]1[C@H](F)C(=O)N[C@@H]1COc1nccc2cc(C(N)=O)c(OC)cc12 [ZIMLOVISERTIB]

- % of control ([3]; at 1 µM): 83%
- % of control ([3]; at 5 µM): 88%
SMILES: C=CC(=O)Nc1cccc(C(=O)Nc2ccc(Nc3cc(-c4[nH]c(SC)nc4C)ccn3)cc2)c1

SMILES: Cc1cc(F)c(C(=O)Nc2cccc(-c3nncn3C(C)C)n2)cc1-n1cnc(C2CC2)c1
- % of control [4]: 88%
- % of control [5]: 93%

SMILES: COCC(=O)NC/C=C/c1ccc2ncnc(Nc3ccc(Oc4ccc(C)nc4)c(C)c3)c2c1 [CP-724714]
- % of control [6]: 70%
- % of control [7]: 100%

SMILES: COc1cc(Nc2nc(C)cc(-c3cnn4nc(OC)ccc34)n2)cc(C(F)(F)F)c1
- % of control [8]: 91%
- % of control [9]: 98%

SMILES: Nc1cnc(N2CCc3cc(S(=O)(=O)Nc4c(F)cc(Cl)cc4F)cc(N4CCCC4=O)c32)nc1 [TP-020n]
- % of control [10]: 100%

From ChEMBL document CHEMBL5465560, “Selectivity Literature for EUbOPEN Chemogenomic Library” (2024)
